Values after ≈ are worked out from the molar mass of the structure shown.
Tests used:
mMAGL = molecular target: T1, mMAGL (Mus musculus, UniProt O35678); experiment: Native MS (RapidFire) 2-AG substrate assay, purified mouse MAGL; type: biochemical; conditions: purified mouse MAGL, native MS substrate assay; read-out: IC50 mMAGL
T1 sequence (O35678 1-303): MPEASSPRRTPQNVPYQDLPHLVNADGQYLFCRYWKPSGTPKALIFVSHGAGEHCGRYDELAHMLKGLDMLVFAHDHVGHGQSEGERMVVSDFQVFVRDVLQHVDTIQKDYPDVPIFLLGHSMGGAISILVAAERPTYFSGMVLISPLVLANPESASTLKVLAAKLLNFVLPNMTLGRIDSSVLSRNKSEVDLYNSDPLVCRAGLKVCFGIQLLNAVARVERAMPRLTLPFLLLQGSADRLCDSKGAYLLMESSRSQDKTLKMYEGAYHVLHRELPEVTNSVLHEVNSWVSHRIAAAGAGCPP
Protocol: (§1) In vitro MAGL Inhibition Assay
(§2) Compounds were profiled for MAGL inhibitory activity by determining the enzymatic activity by following the hydrolysis of the natural substrate 2-arachidonoylglycerol (2-AG), resulting in arachidonic acid, which can be followed by mass spectrometry. The 2-AG assay was carried out in 384 well assay plates (PP, Greiner Cat# 784201) in a total volume of 20 µL. Compound dilutions were made in 100% DMSO (VWR Chemicals 23500.297) in a polypropylene plate in 3-fold dilution steps to give a final concentration range in the assay from 12.5 µM to 0.8 pM. 0.25µL compound dilutions (100% DMSO) were added to 9 µL MAGL in assay buffer (50 mM TRIS (GIBCO, 15567-027), 1 mM EDTA (Fluka, 03690-100 mL), 0.01% (v/v) Tween. After shaking, the plate was incubated for 15 min at RT. To start the reaction, 10 µL 2-arachidonoylglycerol in assay buffer was added. The final concentrations in the assay were 50 pM MAGL and 8 µM 2-arachidonoylglyerol. After shaking and 30 min incubation at RT, the reaction was quenched by the addition of 40µL of ACN containing 4µM of d8-arachidonic acid. The amount of arachidonic acid was traced by an online SPE system (Agilent Rapidfire) coupled to a triple quadrupole mass spectrometer (Agilent 6460). A C18 SPE cartridge (G9205A) was used in an ACN/water liquid setup. The mass spectrometer was operated in negative electrospray mode following the mass transitions 303.1 → 259.1 for arachidonic acid and 311.1 → 267.0 for d8-arachidonic acid. The activity of the compounds was calculated based on the ratio of intensities [arachidonic acid / d8-arachidonic acid]. The lowest IC50 value that can be determined with high accuracy is approximately 0.025 nM.

rMAGL = molecular target: T2, rMAGL (Rattus norvegicus, UniProt Q8R431); experiment: Native MS (RapidFire) 2-AG substrate assay, purified rat MAGL; type: biochemical; conditions: for IC50: purified rat MAGL, native MS substrate assay, read-out: IC50 rMAGL
T2 sequence (Q8R431 1-303): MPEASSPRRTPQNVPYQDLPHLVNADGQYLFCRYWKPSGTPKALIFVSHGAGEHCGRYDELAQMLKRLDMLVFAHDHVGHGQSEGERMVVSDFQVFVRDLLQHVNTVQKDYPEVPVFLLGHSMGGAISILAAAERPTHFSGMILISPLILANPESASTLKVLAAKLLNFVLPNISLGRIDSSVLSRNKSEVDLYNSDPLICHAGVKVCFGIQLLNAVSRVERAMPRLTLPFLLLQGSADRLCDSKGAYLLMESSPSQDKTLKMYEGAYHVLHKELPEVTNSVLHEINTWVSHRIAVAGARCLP
Protocol: as §1, §2

[1] = High throughput kinetic solubility measurement; type: physicochemical; conditions: phosphate buffer, pH 6.5, aqueous buffer, kinetic from dmso stock
MAGL = molecular target: T3, MAGL (Homo sapiens, UniProt Q99685); experiment: Native MS (RapidFire) 2-AG substrate assay, purified human MAGL; type: biochemical; conditions: purified human MAGL, native MS substrate assay; IC50 of covalent inhibitors time-dependent; read-out: IC50 hMAGL
T3 sequence (Q99685 1-303): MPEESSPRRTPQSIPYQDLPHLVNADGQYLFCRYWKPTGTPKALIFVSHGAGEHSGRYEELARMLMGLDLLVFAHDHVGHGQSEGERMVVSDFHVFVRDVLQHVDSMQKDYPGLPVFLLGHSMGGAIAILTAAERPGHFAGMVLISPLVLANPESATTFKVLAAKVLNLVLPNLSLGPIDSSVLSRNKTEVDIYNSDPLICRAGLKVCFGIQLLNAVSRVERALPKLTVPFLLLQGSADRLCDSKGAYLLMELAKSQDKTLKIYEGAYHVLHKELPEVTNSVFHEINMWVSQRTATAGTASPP
Protocol: as §1, §2

| Structure (SMILES) | IC50 (mMAGL) [nM] | IC50 (rMAGL) [nM] | solubility kinetic [1] [µg/mL] | IC50 (MAGL) [nM] | loss of potency against rat or cynomolgus monkey orthologs (rMAGL; rat or cynomolgus monkey MAGL) |
| --- | --- | --- | --- | --- | --- |
| O=C(O[C@H](CO)C(F)(F)F)N1CC2(CC(CC3=C4C=CC=[N+]4[B-](F)(F)n4cccc43)C2)C1 [Compound 1] | 0.21 | 0.36 | 19 (≈ 41.6 µM) | 0.28 |  |
| O=C(OC(C(F)(F)F)C(F)(F)F)N1CC2(CC(CC3=C4C=CC=[N+]4[B-](F)(F)n4cccc43)C2)C1 [Compound 2] | 0.33 | 0.2 | < 3 | 0.39 |  |
| O=C(OC(C(F)(F)F)C(F)(F)F)N1CC2(CC(CC3=C4C=CC(c5ccc[nH]5)=[N+]4[B-](F)(F)n4cccc43)C2)C1 [Compound 2a] | 0.79 | 0.68 | < 1 | 0.98 |  |
| O=C1CO[C@H]2CCN(C(=O)N3CC4(CC(CC5=C6C=CC=[N+]6[B-](F)(F)n6cccc65)C4)C3)C[C@H]2N1 [Compound 4] | 1.33 | 2.4 | 112 (≈ 232 µM) | 0.94 | less than 4 fold |
| O=C1CO[C@H]2CCN(C(=O)N3CC4(CC(CC5=C6C=CC(c7ccc[nH]7)=[N+]6[B-](F)(F)n6cccc65)C4)C3)C[C@H]2N1 [Compound 4a] | 0.18 | 0.47 | < 0.3 | 0.14 |  |
| O=C(N1CC2(CC(CC3=C4C=CC=[N+]4[B-](F)(F)n4cccc43)C2)C1)N1CC2(CC(n3cnc(C4CC4)n3)C2)C1 [Compound 5] | 1.03 | 0.98 | 46 (≈ 86.6 µM) | 0.58 |  |

From article PMC11951083, “Highly Specific Miniaturized Fluorescent Monoacylglycerol Lipase Probes Enable Translational Research” (Journal of the American Chemical Society, 2025)
